Tests used:
[1] = test system: extracted ciliary muscle of white rabbit; experiment: Effect on carbachol contraction of extracted ciliary muscle of white rabbit (Magnus bath); format: cell-based
Protocol: Male Japanese white rabbits (body weight about 2 kg) were euthanized by intravenous administration of an excess pentobarbital sodium. The eyeball was enucleated immediately thereafter and preserved in a Krebs solution (NaCl:112 mM, KC1:5.9 mM, CaCl2 2H2O:2.0 mM, MgCl2 6H2O:1.2 mM, NaH2PO4 2H2O:1.2 mM, NaHCO3:25 mM, Glucose:11.5 mM). The ciliary body separated from the eyeball was hung in a Magnus bath filled with the Krebs solution and equilibrated under a 20-30 mg resting tension. The changes in the tension of the preparation was measured with a transducer and recorded on a pen recorder via an amplifier. As the contraction drug, carbachol was used, and the inhibitory action on the dose dependent response of phasic contraction was studied. The test drug was (+)-trans-4-(1-aminoethyl)-1-(4-pyridylcarbamoyl)cyclohexane 2HCl 1H2O (Compound A), which was added to the Magnus bath 5 min before addition of carbachol.

Japanese white rabbits [2] = experiment: Effect on normal intraocular pressure of white rabbits; format: in vivo, rabbit; conditions: 20 μl eye drop, 0.1% or 0.03%
From the text: In this experiment, 0.1% eye drop and 0.03% eye drop containing Compound A (each prepared in Example 2 and Example 3), 0.03% eye drop containing Compound B (prepared in Example 4), 0.1% eye drop and 0.03% eye drop containing Compound C (each prepared in Example 5 and Example 6) and 0.03% eye drop containing Compound D (prepared in Example 7) were used.
Japanese white rabbits (body weight about 2 kg) purchased from Japan Laboratory Animals, INC. were used. These animals were bred in a breeding chamber set to temperature 23±3° C., humidity 55±10% and fed on limited amount of 100 g a day of a solid feed (Labo R Stock, Nihon-Nosan Kogyo K.K.). They were allowed free access to tap water. The rabbits were placed in a holding box for 5 hr a day for acclimation from 2 days prior to the test. […] After measurement of the initial value of the intraocular pressure, various eye drops (20 μl) were instilled into one eye, and a base, which was one of various eye drops except the test drug, was instilled into the other eye in the same manner and taken as the control eye.
The intraocular pressure was measured with time at 30, 60, 90, 120, 150 and 180 min after instillation and thereafter at one hour intervals until the intraocular pressure returned to the initial value, and the duration of the effect was examined.

Japanese white rabbits [3] = experiment: Effect on blood flow of normal optic disc of white rabbits; format: in vivo, rabbit; conditions: 0.1% eye drop
Protocol: In this experiment, 0.1% eye drop containing Compound A (prepared in Example 2) and 0.1% eye drop containing Compound C (prepared in Example 5) were used.
Japanese white rabbits (body weight about 2 kg) purchased from Japan Laboratory Animals, INC. were used. These animals were bred in a breeding chamber set to temperature 23±3° C., humidity 55±10% and fed on limited amount of 100 g a day of a solid feed (Labo R Stock, Nihon-Nosan Kogyo K.K.). They were allowed free access to tap water. In the same manner as in Example 4, each test drug was administered. Using laser speckle microcirculation analyzer, the blood flow of optic disc was measured at 30, 60, 90, 120, 150 and 180 min after instillation and thereafter at one hour intervals till 300 min after the instillation.

Japanese white rabbits [4] = experiment: Ophthalmic disorder caused by 8-time-a-day instillation to white rabbits: observation of corneal staining spot; format: in vivo, rabbit; conditions: after 8th administration
Protocol: The test drugs, Compound A and Compound C, were each dissolved in the following base at a concentration of 0.125, 0.25, 0.5 and 1.0% and adjusted to pH 7 for use in this experiment. Japanese white rabbits (body weight about 2 kg) purchased from Japan Laboratory Animals, INC. were used. These animals were bred in a breeding chamber set to temperature 23±3° C., humidity 55±10% and fed on limited amount of 100 g a day of a solid feed (Labo R Stock, Nihon-Nosan Kogyo K.K.). They were allowed free access to tap water. Instillation: Using a micropipet, each test drug (100 μl) was instilled into the right eye of each animal 8 times at one hour intervals. Into the left eye was instilled a base in the same manner. Observation: anterior segment of the eye was macroscopically observed before instillation and 30 min after 2nd, 4th, 6th and 8th administrations, according to the macroscopic criteria for ocular lesions as shown in Table 1 (Naruyuki Fukui, […] no Rinshou 4, 277-289, 1970). In addition, corneal staining spot was observed before instillation and after 8th administration.

SMILES	type of antagonism against carbachol contraction ([1]; 10^−6-3×10^−4 M carbachol)	IC50 ([1]; ciliary muscle, added 5 min before carbachol, read-out: IC50 against carbachol contraction)	character (onset, duration) of intraocular pressure lowering effect (Japanese white rabbits [2])	duration of optic disc blood flow increasing effect (Japanese white rabbits [3])	observation of corneal staining spot (Japanese white rabbits [4]; any concentration (0.125, 0.25, 0.5 and 1.0%))	observation of corneal staining spot (Japanese white rabbits [4]; 0.125% instillation)	observation of corneal staining spot (Japanese white rabbits [4]; 0.25% instillation, corneal epithelium)	observation of corneal staining spot (Japanese white rabbits [4]; 0.5% instillation, corneal epithelium)	observation of corneal staining spot (Japanese white rabbits [4]; 1.0% instillation, corneal epithelium)
CC(N)[C@H]1CC[C@H](C(=O)Nc2ccncc2)CC1.Cl.Cl.O (single isomer, unassigned; (+)) [Compound A, (+)-trans-4-(1-Aminoethyl)-1-(4-pyridylcarbamoyl)cyclohexane 2HCl 1H2O]	non-competitive antagonism	2800 nM	intraocular pressure lowering effect in early stages after instillation	more long-lasting	did not lead to abnormalities				
C[C@@H](N)c1ccc(C(=O)Nc2ccncc2)cc1.Cl.Cl [Compound C, (R)-(+)-N-(4-pyridyl)-4-(1-aminoethyl)benzamide 2HCl]						did not cause particular abnormality	abnormality in two eyes	abnormality in all eyes	abnormality in all eyes
